Assay results taken from ChEMBL document CHEMBL1149973, “Inhibitory stereochemistry of N-chloroacetyl-N-hydroxyleucine methyl ester for thermolysin” (Bioorg Med Chem Lett, 1996).
pKi: −log10 of the molar value.

Columns and labels:
[1] = molecular target: T1, Thermolysin (Bacillus thermoproteolyticus, UniProt P00800); assay: Inhibitory activity against thermolysin expressed as Ki
T1 sequence (P00800 whole entry): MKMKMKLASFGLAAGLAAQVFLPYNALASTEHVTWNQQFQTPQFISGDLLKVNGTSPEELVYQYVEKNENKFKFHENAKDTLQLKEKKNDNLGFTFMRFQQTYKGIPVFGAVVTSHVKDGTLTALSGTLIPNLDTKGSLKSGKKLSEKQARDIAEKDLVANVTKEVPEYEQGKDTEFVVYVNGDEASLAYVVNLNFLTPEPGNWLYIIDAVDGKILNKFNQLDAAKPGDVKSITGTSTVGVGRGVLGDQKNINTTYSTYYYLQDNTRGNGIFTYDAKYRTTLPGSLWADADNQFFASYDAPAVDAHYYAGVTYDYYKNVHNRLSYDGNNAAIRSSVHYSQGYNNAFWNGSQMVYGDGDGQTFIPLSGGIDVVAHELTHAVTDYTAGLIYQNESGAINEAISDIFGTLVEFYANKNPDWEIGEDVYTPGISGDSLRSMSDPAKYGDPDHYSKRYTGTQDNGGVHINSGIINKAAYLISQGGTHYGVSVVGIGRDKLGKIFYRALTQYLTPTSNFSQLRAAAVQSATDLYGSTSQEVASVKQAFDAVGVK

[2] = molecular target: T2, Thermolysin (Bacillus thermoproteolyticus) (UniProt P00800); assay: Inhibitory activity against thermolysin expressed as kinact
T2 sequence (whole entry): T1 sequence (P00800 whole entry)

pKi [1]	K inact [2]	Structure (SMILES)
2.35	0.009 s⁻¹	COC(=O)[C@H](CC(C)C)N(O)C(=O)CCl
2.12	0.0075 s⁻¹	COC(=O)C(CC(C)C)N(O)C(=O)CCl (centres undefined)
